Results: patent US20030054348A1, “Methods of identifying the activity of gene products” (priority 2000, published 2003)

System: 5′ UTR of HCV mRNA
Assay: Phage panning and phage Elisa on biotinylated RNA target
Assay type: binding
Conditions: phage clones; positive if A405 >2-fold over background
Experimental: Surrogate peptides were obtained by panning a portion of the 5′ UTR of HCV mRNA using both the 20 mer and 40 mer random libraries. All solutions and surfaces were pretreated with DEPC or RNaseZap (Ambion, Inc.), respectively, to eliminate RNase contamination that may compromise the integrity of the RNA. Biotinylated—RNA target was diluted to 1 mg/ml in binding buffer (PBS containing 1 mM MgCl2), denatured at 65° C. for 5 min and reannealed by slow cooling to room temperature to allow for appropriate refolding. The synthetic biotinylated-RNA target had the following sequence, 5′-biotin′AA UUGCCAGGACGACCGGGUCCUUUCUUGGAU CM CCC GCU CM UGC CUG GAG AUU-3′. Reannealed RNAs were stored in small aliquots (10-25 μl/tube) at −20° C. Microtiter wells were treated with RNaseZap (Ambion, Inc.) before use. One hundred microliters of RNA solution diluted to 2.5 ng/μl was added to an appropriate number of wells in a 96-well microtiter plate precoated with Streptavidin (Pierce) and incubated for 1 hr at room temperature. Unbound streptavidin was then blocked with 50 μl of 2 mM biotin at room temperature for 1 hr. Four wells were used for each round of panning and 100 μl phage was added to each well. Pahge were precipitated with RNase-free 6% PEG 8000+0.3 M NaCl, washed with the same solution once and resuspended in RNase-free PBS+1 mM MgCl2+Superasin (RNase inhibitor from Ambion, Inc.). For the first round, the input phage titer was 1×10^13 cfu/ml. For rounds 2 and 3, the input phage titer was approximately 10^11 cfu/ml. Phage were allowed to bind for two to three hours at room temperature. The wells were then quickly washed 13 times with 400 μl/well of PBS. Bound phage were eluted by incubation with 150 μl/well of 50 mM glycine-HCl, pH 2.2+0.1% BSA for 5 min. The resulting solution was then neutralized with Tris-HCl, pH 8.0. Log phase TG1 cells were infected with the eluted phage by incubation at 37° C. for 1 hr. Helper phage (M13KO7) was then added (multiplicity of infection(MOI)=15) and cells incubated in the presence of 50 μg/ml ampicillin and 2% glucose for 1 hr at 37° C. with shaking at 250 rpm. Following infection, cells were pelleted, resuspended in the initial culture volume of 2×YT containing 50 μg/ml ampicillin and 50 μg/ml Kanamycin and grown overnight at 37° C. with shaking at 225 rpm. Cells from the overnight culture were pelleted and supernatant containing phage was recovered. Phage was precipitated with 6% PEG 8000, 300 mM NaCl and chilled on ice for 1 hr. […]
For Elisa analysis of individual clones, colonies were picked and phage prepared as described above using helper phage, M13KO7. […] Plates were analyzed at 405 nm using a SpectraMax 340 plate reader (Molecular Devices) and SoftMax Pro software. […]

Q: With FTTPRHLSGRTVQMMRDSTS [HCV-3-C3] as the substance, how does the “Binding to HCV mRNA target” value read?
A: binders

Q: With “LLVTGQFP--SQLLLGGAVCGP--STPRLRTGLCRLSGT (LLVTGQFPSQLLLGGAVCGPSTPRLRTGLCRLSGT) [HCV-3-F5]” as the substance, how does the “Binding to HCV mRNA target” value read?
A: binders

Q: With “RRTCGDPAAMLERLSCRAGDYRGASHTGRLLNLRGMHQYP [HCV-3-H8]” as the substance, how does the “Binding to HCV mRNA target” value read?
A: binders

Q: Which “Binding to HCV mRNA target” value does the source give for TSGESSGDRTRRVLTSSSARTILPN [HCV-NG-D9] here?
A: binders
